Entries after “also recorded” stand apart in the source; their conditions may differ. Read-outs that look alike come from different tables or passages of the source.
Legend:
HCT116 = assay: Cytotoxic activity on HCT116; assay type: cell-based; conditions: for IC50: Homo sapiens, read-out: HCT116 IC50; for antiproliferative / cytotoxic activity in words: comment on Table 1
Method: (§1) The cytotoxic activity of the prepared compounds was evaluated on various human cancer cell lines. The selected line was incubated at 37° C. in the presence of one of the novel compounds, added to the culture medium at various concentrations.

Tubulin = assay: Inhibition of tubulin polymerisation (ITP); assay type: biochemical, sheep; conditions: tubulin 10 μM; inhibition of maximum assembly rate
Method: To verify whether the antiproliferative activities of novel molecules 2 and 3 correlate with their anti-tubulin effects, their ability to inhibit tubulin polymerisation into microtubules was measured in vitro. Tubulin was purified from sheep brains according to the Shelanski method by two assembly-disassembly cycles. The stock solution (15-20 mg/mL), stored at −196° C., is thawed and diluted in the assembly buffer (0.1 M MES, 0.5 mM MgCl2, 1 mM EGTA, and 1 mM GTP, pH 6.6) to a final concentration of 10 μM. Tubulin assembly was monitored by fluorescence on 96-well plates according to the method of Barron et al. The tubulin solution (10 μM, 100 μL per well) was supplemented with inhibitor (DMSO, 1 μL) and incubated for 45 min at room temperature. GTP (1 mM final) was then added, the solution was rapidly mixed and the fluorescence (λex=350 nm, λem=440 nm) was measured on a Wallac Victor fluorimeter (Perkin Elmer). Fifty-percent inhibition of the maximum assembly rate (IC50) was determined in duplicate or triplicate on 10 concentrations flanking the IC50. For comparison, deoxypodophyllotoxin and isoCA-4 were used as positive controls.

MCF7 = assay: Cytotoxic activity on MCF7; assay type: cell-based; conditions: Homo sapiens, 72 hours of incubation, read-out: Cytotoxicity IC50 MCF7
Method: as §1

PC3 = assay: Cytotoxic activity on PC3; assay type: cell-based; conditions: Homo sapiens, PC-3; 72 hours of incubation; read-out: Cytotoxicity IC50 PC3
Method: as §1

HDAC8 = molecular target: T1, HDAC8 (Homo sapiens, UniProt Q9BY41); assay: Inhibition of HDAC8 activity; assay type: biochemical
T1 sequence (Q9BY41 1-377): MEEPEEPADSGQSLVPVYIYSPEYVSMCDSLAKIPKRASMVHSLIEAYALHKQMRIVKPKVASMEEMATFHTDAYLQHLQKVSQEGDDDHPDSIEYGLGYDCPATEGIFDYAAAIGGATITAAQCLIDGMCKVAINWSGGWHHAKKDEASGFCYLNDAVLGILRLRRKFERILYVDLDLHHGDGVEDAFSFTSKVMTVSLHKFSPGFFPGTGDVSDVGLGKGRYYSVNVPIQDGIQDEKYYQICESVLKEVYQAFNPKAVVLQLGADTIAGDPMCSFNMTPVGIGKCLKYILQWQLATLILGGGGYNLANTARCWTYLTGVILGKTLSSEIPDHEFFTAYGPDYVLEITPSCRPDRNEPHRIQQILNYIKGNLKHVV

MiaPaCa 2 = assay: Cytotoxic activity on MiaPaCa 2; assay type: cell-based; conditions: Homo sapiens, MIA PaCa-2; 72 hours of incubation; read-out: Cytotoxicity IC50 MiaPaCa 2
Method: as §1

BxPC3 = assay: Cytotoxic activity on BxPC3; assay type: cell-based; conditions: Homo sapiens, BXPC-3; 72 hours of incubation; read-out: Cytotoxicity IC50 BxPC3
Method: as §1

other human tumour lines = assay: Cytotoxicity to other human tumour lines (panel); assay type: cell-based; conditions: A549, K562, MCF7, PC3, U87, U2OS, SOJ6, BxPC-3, MiaPaCa-2, read-out: IC50 values across other human tumour lines
Method: as §1

SOJ6 = assay: Cytotoxic activity on SOJ6; assay type: cell-based; conditions: Homo sapiens; 72 hours of incubation; read-out: Cytotoxicity IC50 SOJ6
Method: as §1

U2OS = assay: Cytotoxic activity on U2OS; assay type: cell-based; conditions: Homo sapiens, 72 hours of incubation, read-out: Cytotoxicity IC50 U2OS
Method: as §1

K562 = assay: Cytotoxic activity on K562; assay type: cell-based; conditions: Homo sapiens, 72 hours of incubation, read-out: Cytotoxicity IC50 K562
Method: as §1

K562R = assay: Cytotoxic activity on K562R; assay type: cell-based; conditions: Homo sapiens, K-562R; 72 hours of incubation; imatinib-resistant
Method: as §1

A549 = assay: Cytotoxic activity on A549; assay type: cell-based; conditions: Homo sapiens, 72 hours of incubation, read-out: Cytotoxicity IC50 A549
Method: as §1

U87 = assay: Cytotoxic activity on U87; assay type: cell-based; conditions: Homo sapiens, U-87 MG; 72 hours of incubation; read-out: Cytotoxicity IC50 U87
Method: as §1

HDACs 1 to 11 = assay: Inhibition of HDACs 1 to 11 (panel); assay type: biochemical; conditions: percentage inhibition at test concentration of 1.0^−5 M
many human cancer lines = many human cancer lines and resistant lines; read-out: cytotoxic IC50; cited from earlier work
HDAC11 = molecular target: T2, HDAC11 (Homo sapiens, UniProt Q96DB2); assay: Inhibition of HDAC11 activity; assay type: biochemical; conditions: FIG. 5
T2 sequence (Q96DB2 1-347): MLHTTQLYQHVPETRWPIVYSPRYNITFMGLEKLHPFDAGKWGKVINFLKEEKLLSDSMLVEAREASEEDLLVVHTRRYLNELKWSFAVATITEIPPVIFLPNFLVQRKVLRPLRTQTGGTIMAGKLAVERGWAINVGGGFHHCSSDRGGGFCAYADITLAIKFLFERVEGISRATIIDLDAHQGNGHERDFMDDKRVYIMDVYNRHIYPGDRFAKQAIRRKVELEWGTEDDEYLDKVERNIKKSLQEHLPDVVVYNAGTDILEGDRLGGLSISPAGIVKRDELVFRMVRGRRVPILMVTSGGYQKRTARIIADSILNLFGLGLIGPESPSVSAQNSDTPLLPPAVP

[1] = HCT-116, 72 hours of incubation

Row | Compound | IC50 (HCT116; [1]) [nM] | antiproliferative / cytotoxic activity in words (HCT116) | IC50 (Tubulin) [nM] | selective inhibitory activity among HDACs 1 to 11 (HDACs 1 to 11) | also measured
1 | C=C(c1cc(OC)c(OC)c(OC)c1)c1ccc2c(c1)c(C(=O)NO)cn2C [Compound 25, N-Hydroxy-1-methyl-5-(1-(3,4,5-trimethoxyphenyl)vinyl)-1H-indole-3-carboxamide] | 30 ± 1.5 | excellent antiproliferative activity | 7300 ± 3300 | – | –
2 | C=C(c1cc(OC)c(OC)c(OC)c1)c1ccc(OC)c(C(=O)NO)c1 [Compound 1, N-Hydroxy-2-methoxy-5-(1-(3,4,5-trimethoxyphenyl)vinyl)benzamide] | 233 ± 22 | – | 20000 ± 1200 | – | –
3 | C=C(c1ccc(OC)c(/C=C/C(=O)NO)c1)c1cc(OC)c(OC)c(OC)c1 [Compound 2, (E)-N-Hydroxy-3-(2-methoxy-5-(1-(3,4,5-trimethoxyphenyl)vinyl)phenyl)acrylamide] | 2.5 | – | 1600 | selective inhibitory activity against HDAC8; also recorded: selective activity for HDAC8 and HDAC11 | IC50 (MCF7): 2 nM; IC50 (PC3): 2.4 nM; IC50 (HDAC8): 340 nM; IC50 (MiaPaCa 2): 5.1 nM; IC50 (BxPC3): 2.9 nM; IC50 (other human tumour lines): 1.6 to 6.8 nM; IC50 (SOJ6): 6.8 nM; IC50 (U2OS): 1.9 nM; IC50 (K562): 1.6 nM; IC50 (K562R): 1.6 nM; IC50 (A549): 1.7 nM; IC50 (U87): 1.6 nM
4 | C=C(c1ccc(OC)c(O)c1)c1cc(OC)c(OC)c(OC)c1 [isoCA-4, Isocombretastatin A-4, reference compound] | – | – | 1800 ± 400 | – | IC50 (HCT116; HCT-116, 72 h): 2 nM
5 | C=C(c1cc(OC)c(OC)c(OC)c1)c1ccc2c(c1)c(/C=C/C(=O)NO)cn2C [Compound 11, (E)-N-Hydroxy-3-(1-methyl-5-(1-(3,4,5-trimethoxyphenyl)vinyl)-1H-indol-3-yl)acrylamide] | 2.2 ± 0.26 | excellent antiproliferative activity | 3700 ± 500 | selective inhibitory activity against HDAC6 and HDAC8; also recorded: selective activity for HDAC6 and HDAC8 | –
6 | C=C(c1ccc(OC)c(C#CCCCC(=O)NO)c1)c1cc(OC)c(OC)c(OC)c1 [Compound 4, N-Hydroxy-6-(2-methoxy-5-(1-(3,4,5-trimethoxyphenyl)vinyl)phenyl)hex-5-ynamide] | 372 ± 5 | – | 18000 ± 1200 | – | –
7 | COc1ccc(/C=C\c2cc(OC)c(OC)c(OC)c2)cc1O [CA-4, combretastatin A-4] | – | – | – | – | IC50 (many human cancer lines): 1 to 2 nM
8 | C=C(c1cc(OC)c(OC)c(OC)c1)c1ccc(OC)cc1/C=C/C(=O)NO [Compound 8, (E)-N-Hydroxy-3-(5-methoxy-2-(1-(3,4,5-trimethoxyphenyl)vinyl)phenyl)acrylamide] | 2 ± 0.1 | – | 2100 ± 400 | selective inhibitory activity against HDAC6, HDAC8 and HDAC11; also recorded: selective activity for HDAC6, HDAC8 and HDAC11 | –
9 | C=C(c1ccc(OC)c(C#CCCC(=O)NO)c1)c1cc(OC)c(OC)c(OC)c1 [Compound 3, N-Hydroxy-5-(2-methoxy-5-(1-(3,4,5-trimethoxyphenyl)vinyl)phenyl)pent-4-ynamide] | 35 | cytotoxic at nanomolar concentrations | 1700 | selective inhibitory activity against HDAC8 and HDAC11; also recorded: selective activity for HDAC8 and HDAC11 | IC50 (HDAC11): 11000 nM; IC50 (K562R): 33 nM
10 | C=C(c1cc(OC)c(OC)c(OC)c1)c1ccc2c(ccn2CCC(=O)NO)c1 [Compound 44, N-Hydroxy-3-(5-(1-(3,4,5-trimethoxyphenyl)vinyl)-1H-indol-1-yl)propanamide] | 393 ± 4.1 | – | 22000 ± 2000 | – | –
11 | C=C(c1cc(OC)c(OC)c(OC)c1)c1ccc2c(c1)cc(/C=C/C(=O)NO)n2C [Compound 12, (E)-N-Hydroxy-3-(1-methyl-5-(1-(3,4,5-trimethoxyphenyl)vinyl)-1H-indol-2-yl)acrylamide] | 12 ± 2.5 | excellent antiproliferative activity | 5400 ± 1200 | selective inhibitory activity against HDAC6, HDAC8 and HDAC11; also recorded: selective activity for HDAC6, HDAC8 and HDAC11 | –
12 | C=C(c1cc(OC)c(OC)c(OC)c1)c1ccc2c(c1)cc(C(=O)NO)n2C [Compound 43, N-Hydroxy-1-methyl-5-(1-(3,4,5-trimethoxyphenyl)vinyl)-1H-indole-2-carboxamide] | 36 ± 4 | excellent antiproliferative activity | 81000 ± 15000 | – | –
13 | C=C(c1cc(OC)c(OC)c(OC)c1)c1ccc(OC)c(/C=C/C(=O)NO)n1 [Compound 17, (E)-N-Hydroxy-3-(3-methoxy-6-(1-(3,4,5-trimethoxyphenyl)vinyl)pyridin-2-yl)acrylamide] | 37.2 ± 0.6 | excellent antiproliferative activity | 7500 ± 1500 | – | –
